Results taken from US20050101595A1, “N-containing cycloalkyl-substituted amino-thiazole derivatives and pharmaceutical compositions for inhibiting cell proliferation and methods for their use” (PFIZER INC., priority 2003, published 2005).
Where a name gives a salt, the structure may show the parent alone. Read-outs that look alike come from different tables or passages of the source.

Legend:
CDK2/Cyclin A = CDK2/Cyclin A (Homo sapiens, UniProt P24941); assay: Inhibition of CDK2/Cyclin A Retinoblastoma Kinase Activity; type: biochemical; conditions: for Ki: apparent Ki, CDK2/proteolyzed cyclin A, Rb fragment substrate, 25 μM ATP
Procedure, shortened: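 Radiometric filter-binding readout of phosphate transfer to an Rb substrate fragment by purified CDK2/truncated cyclin A at 10 or 19 nM. Run at pH 7.4 with 25 μM ATP, 30 °C, 60–75 min, linear rates; background without enzyme subtracted, Ki from competitive-inhibition models.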

[1] = target: human CDK4 and genetically truncated (1-264) cyclin D3 (Homo sapiens, UniProt P11802); assay: Inhibition of CDK4/Cyclin D Retinoblastoma Kinase Activity; type: biochemical; conditions: for Ki: apparent Ki, CDK4/truncated cyclin D3, Rb fragment substrate, 25 μM ATP
human CDK4 and genetically truncated (1-264) cyclin D3, sequence (P11802 whole entry, the tested form may be a part): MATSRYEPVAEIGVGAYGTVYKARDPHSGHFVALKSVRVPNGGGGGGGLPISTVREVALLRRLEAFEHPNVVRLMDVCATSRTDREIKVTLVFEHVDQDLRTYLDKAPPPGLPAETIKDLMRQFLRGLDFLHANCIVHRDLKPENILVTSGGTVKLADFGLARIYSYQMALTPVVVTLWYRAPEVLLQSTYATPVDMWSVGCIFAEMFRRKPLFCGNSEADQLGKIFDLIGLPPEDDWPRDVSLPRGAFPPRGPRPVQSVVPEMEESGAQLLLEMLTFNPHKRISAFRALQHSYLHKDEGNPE
human CDK4 and genetically truncated (1-264) cyclin D3, sequence (P30281 1-264 partner): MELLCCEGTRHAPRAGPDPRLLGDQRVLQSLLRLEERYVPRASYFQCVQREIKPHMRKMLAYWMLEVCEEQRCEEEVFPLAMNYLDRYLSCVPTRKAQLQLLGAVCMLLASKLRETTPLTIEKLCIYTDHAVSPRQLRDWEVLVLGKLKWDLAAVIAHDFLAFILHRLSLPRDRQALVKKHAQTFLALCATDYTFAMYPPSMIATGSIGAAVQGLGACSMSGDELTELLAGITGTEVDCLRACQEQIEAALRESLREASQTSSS
Procedure, shortened: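 Apparent Ki values come from competitive or competitive tight-binding inhibition fits of background-corrected 32P/33P incorporation into His-tagged Rb fragment (386-928), captured on nitrocellulose. Reaction: 5 nM insect-cell-expressed human CDK4 with cyclin D3 (1-264), 25 μM ATP, pH 7.4 HEPES, 2% DMSO, 30° C., 20 min, extended to 60 min for tight-binding inhibitors.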

HCT-116 cell line = assay: Inhibition of cell growth, tetrazolium salt (MTT) assay; type: cell-based; conditions: for IC50: HCT-116, 120 h, MTT, three to five days, read-out: HCT-116 IC50; for HCT-116 % Inhibition at 0.25 μM: 0.25 μM compound
Procedure, shortened: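 First, cells were seeded in McCoy's 5A medium and held 4 h. Next, inhibitor concentrations in 0.5% (v/v) DMSO were applied for three to five days at 37° C, 5% CO2. Finally, after 4 h with 0.2 mg/mL MTT and medium removal, solubilized formazan was measured at 540 nm.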

[2] = Homo sapiens, first HCT-116 column (c4)
[3] = Homo sapiens, second HCT-116 column (c5)

Structure (SMILES) | Ki (CDK2/Cyclin A) | Ki [1] | IC50 (HCT-116 cell line; [2]) | IC50 (HCT-116 cell line; [3]) | inhibition at 0.03 µM (CDK2/Cyclin A; 0.03 μM compound, Table 2) | inhibition at 0.03 µM ([1]; 0.03 μM compound, Table 2) | CDK2 % Inhibition At 0.03 μM (CDK2/Cyclin A; 0.03 μM compound, Table 2) | CDK4 % Inhibition at 0.03 μM ([1]; 0.03 μM compound, Table 2) | inhibition at 0.25 µM (HCT-116 cell line; Homo sapiens, HCT-116, 0.25 μM compound, HCT-116, Table 2, read-out: HCT-116 % Inhibition at 0.25 μM) | HCT-116 % Inhibition at 0.25 μM (HCT-116 cell line; HCT-116, Table 2)
Nc1nc(NC2CCN(S(=O)(=O)c3ccc(Sc4ccccn4)nc3)CC2)sc1C(=O)c1c(F)cccc1F [Example L2, 1-(4-Amino-2-{1-[6-(pyridin-2-ylsulfanyl)-pyridine-3-sulfonyl]-piperidin-4-ylamino}-thiazol-5-yl)-1-(2,6-difluoro-phenyl)-methanone Dihydrochloride.] | 1.5 nM | 2.7 nM | > 500 nM | > 500 nM |  |  |  |  |  | 
Nc1nc(NC2CCN(S(=O)(=O)c3ccc(SCCc4ccccn4)nc3)CC2)sc1C(=O)c1c(F)cccc1F [Example L3, 1-(4-Amino-2-{1-[6-(2-pyridin-2-yl-ethylsulfanyl)-pyridine-3-sulfonyl]-piperidin-4-ylamino}-thiazol-5-yl)-1-(2,6-difluoro-phenyl)-methanone Hydrochloride.] | 0.68 nM | 1.2 nM | 350 nM | > 500 nM |  |  |  |  |  | 
Nc1nc(NC2CCN(S(=O)(=O)c3ccc(S)nc3)CC2)sc1C(=O)c1c(F)cccc1F [Example L4, 1-{4-Amino-2-[1-(6-mercapto-pyridine-3-sulfonyl)-piperidin-4-ylamino]-thiazol-5-yl}-1-(2,6-difluoro-phenyl)-methanone Hydrochloride.] | 0.3 nM | 1.8 nM | > 500 nM | > 500 nM |  |  |  |  |  | 
CN(C)CCCSc1ccc(S(=O)(=O)N2CCC(Nc3nc(N)c(C(=O)c4c(F)cccc4F)s3)CC2)cn1 [Example L5, 1-(4-Amino-2-{1-[6-(3-dimethylamino-propylsulfanyl)-pyridine-3-sulfonyl]-piperidin-4-ylamino}-thiazol-5-yl)-1-(2,6-difluoro-phenyl)-methanone Dihydrochloride.] | 1.5 nM | 0.67 nM | 70 nM | > 500 nM |  |  |  |  |  | 
CN1CCCC1CCSc1ccc(S(=O)(=O)N2CCC(Nc3nc(N)c(C(=O)c4c(F)cccc4F)s3)CC2)cn1 (stereo not shown) [Example L6, 1-[4-Amino-2-(1-{6-[2-(1-methyl-pyrrolidin-2-yl)-ethylsulfanyl]-pyridine-3-sulfonyl}-piperidin-4-ylamino)-thiazol-5-yl]-1-(2,6-difluoro-phenyl)-methanone Dihydrochloride.] | 1.5 nM | 0.95 nM | 75 nM | 300 nM |  |  |  |  |  | 
Nc1nc(NC2CCN(S(=O)(=O)c3ccc(SCCN4CCOCC4)nc3)CC2)sc1C(=O)c1c(F)cccc1F [Example L7, 1-(4-Amino-2-{1-[6-(2-morpholin-4-yl-ethylsulfanyl)-pyridine-3-sulfonyl]-piperidin-4-ylamino}-thiazol-5-yl)-1-(2,6-difluoro-phenyl)-methanone Dihydrochloride.] | 1.5 nM | 2.2 nM | 95 nM | 300 nM |  |  |  |  |  | 
Nc1nc(NC2CCN(Cc3ccccn3)CC2)sc1C(=O)c1c(F)cccc1F [Example M1, 1-[4-Amino-2-(1-pyridin-2-ylmethyl-piperidin-4-ylamino)-thiazol-5-yl]-1-(2,6-difluoro-phenyl)-methanone] | > 500 nM | 240 nM | 2800 nM | 5000 nM |  |  |  |  |  | 
Nc1nc(NC2CCN(Cc3ccncc3)CC2)sc1C(=O)c1c(F)cccc1F [Example M2, 1-[4-Amino-2-(1-pyridin-4-ylmethyl-piperidin-4-ylamino)-thiazol-5-yl]-1-(2,6-difluoro-phenyl)-methanone.] | 433 nM | 33.5 nM | 2100 nM | 5000 nM |  |  |  |  |  | 

Now from value to compound, other results behind:

Ki (CDK2/Cyclin A) | Ki [1] | IC50 (HCT-116 cell line; [2]) | IC50 (HCT-116 cell line; [3]) | inhibition at 0.03 µM (CDK2/Cyclin A; 0.03 μM compound, Table 2) | inhibition at 0.03 µM ([1]; 0.03 μM compound, Table 2) | CDK2 % Inhibition At 0.03 μM (CDK2/Cyclin A; 0.03 μM compound, Table 2) | CDK4 % Inhibition at 0.03 μM ([1]; 0.03 μM compound, Table 2) | Structure (SMILES) | inhibition at 0.25 µM (HCT-116 cell line; Homo sapiens, HCT-116, 0.25 μM compound, HCT-116, Table 2, read-out: HCT-116 % Inhibition at 0.25 μM) | HCT-116 % Inhibition at 0.25 μM (HCT-116 cell line; HCT-116, Table 2)
0.28 nM | 0.49 nM | 860 nM | 1600 nM |  |  |  |  | Nc1nc(NC2CCN(S(=O)(=O)c3ccc(CCNc4ccccc4O)nc3)CC2)sc1C(=O)c1c(F)cccc1F [Example N1, [4-Amino-2-(1-{6-[2-(2-hydroxy-phenylamino)-ethyl]-pyridine-3-sulfonyl}-piperidin-4-ylamino)-thiazol-5-yl]-(2,6-difluoro-phenyl)-methanone Trifluoroacetic Acid Salt.] |  | 
1.2 nM | 0.49 nM | 230 nM | > 500 nM |  |  |  |  | Nc1nc(NC2CCN(S(=O)(=O)c3ccc(CCN4CCCC4)nc3)CC2)sc1C(=O)c1c(F)cccc1F [Example N2, (4-Amino-2-{1-[6-(2-pyrrolidin-1-yl-ethyl)-pyridine-3-sulfonyl]-piperidin-4-ylamino}-thiazol-5-yl)-(2,6-difluoro-phenyl)-methanone Hydrochloride Salt.] |  | 
1.1 nM | 0.76 nM | 170 nM | > 500 nM |  |  |  |  | Nc1nc(NC2CCN(S(=O)(=O)c3ccc(CCN4CCOCC4)nc3)CC2)sc1C(=O)c1c(F)cccc1F [Example N3, (4-Amino-2-{1-[6-(2-morpholin-4-yl-ethyl)-pyridine-3-sulfonyl]-piperidin-4-ylamino}-thiazol-5-yl)-(2,6-difluoro-phenyl)-methanone Hydrochloride Salt.] |  | 
1.7 nM | 0.92 nM | 360 nM | > 500 nM |  |  |  |  | CN1CCN(CCc2ccc(S(=O)(=O)N3CCC(Nc4nc(N)c(C(=O)c5c(F)cccc5F)s4)CC3)cn2)CC1 [Example N4, [4-Amino-2-(1-{6-[2-(4-methyl-piperazin-1-yl)-ethyl]-pyridine-3-sulfonyl}-piperidin-4-ylamino)-thiazol-5-yl]-(2,6-difluoro-phenyl)-methanone Hydrochloride Salt.] |  | 
0.3 nM | 0.31 nM | 410 nM | 1300 nM |  |  |  |  | Nc1nc(NC2CCN(S(=O)(=O)c3ccc(CCNc4cccc(O)c4)nc3)CC2)sc1C(=O)c1c(F)cccc1F [Example N6, [4-Amino-2-(1-{6-[2-(3-hydroxy-phenylamino)-ethyl]-pyridine-3-sulfonyl}-piperidin-4-ylamino)-thiazol-5-yl]-(2,6-difluoro-phenyl)-methanone Hydrochloride Salt.] |  | 
0.93 nM | 0.35 nM | 890 nM | 4000 nM |  |  |  |  | Nc1nc(NC2CCN(S(=O)(=O)c3ccc(CCN4CCC(O)C4)nc3)CC2)sc1C(=O)c1c(F)cccc1F (stereo not shown) [Example N7, [4-Amino-2-(1-{6-[2-(3-hydroxy-pyrrolidin-1-yl)-ethyl]-pyridine-3-sulfonyl}-piperidin-4-ylamino)-thiazol-5-yl]-(2,6-difluoro-phenyl)-methanone Hydrochloride Salt.] |  | 
1.1 nM | 0.32 nM | 1300 nM | 5000 nM |  |  |  |  | C[C@@H]1CN(CCc2ccc(S(=O)(=O)N3CCC(Nc4nc(N)c(C(=O)c5c(F)cccc5F)s4)CC3)cn2)C[C@H](C)N1 [Example N8] |  | 
0.8 nM | 0.26 nM | 70 nM | 700 nM |  |  |  |  | Nc1nc(NC2CCN(S(=O)(=O)c3ccc(CCN4CCC[C@H]4CO)nc3)CC2)sc1C(=O)c1c(F)cccc1F [Example N9, [4-Amino-2-(1-{6-[2-(2S-hydroxymethyl-pyrrolidin-1-yl)-ethyl]-pyridine-3-sulfonyl}-piperidin-4-ylamino)-thiazol-5-yl]-(2,6-difluoro-phenyl)-methanone Hydrochloride Salt.] |  | 
1.3 nM | 0.21 nM | 380 nM | 3000 nM |  |  |  |  | Nc1nc(NC2CCN(S(=O)(=O)c3ccc(CCN4C[C@@H]5[C@@H](N)[C@@H]5C4)nc3)CC2)sc1C(=O)c1c(F)cccc1F [Example N10, [4-Amino-2-(1-{6-[2-(1α, 5β, 6γ-amino-3-aza-bicyclo[3.1.0]hex-3-yl)-ethyl]-pyridine-3-sulfonyl}-piperidin-4-ylamino)-thiazol-5-yl]-(2,6-difluoro-phenyl)-methanone Hydrochloride Salt.] |  | 
1.6 nM | 0.39 nM | 140 nM | 1600 nM |  |  |  |  | CN(C)CCc1ccc(S(=O)(=O)N2CCC(Nc3nc(N)c(C(=O)c4c(F)cccc4F)s3)CC2)cn1 [Example N11, (4-Amino-2-{1-[6-(2-dimethylamino-ethyl)-pyridine-3-sulfonyl]-piperidin-4-ylamino}-thiazol-5-yl)-(2,6-difluoro-phenyl)-methanone TFA Salt.] |  | 
1.7 nM | 0.62 nM | 67 nM | 130 nM |  |  |  |  | CN(C)CCc1ncc(S(=O)(=O)N2CCC(Nc3nc(N)c(C(=O)c4c(F)cccc4F)s3)CC2)cn1 [Example N12, (4-Amino-2-{1-[2-(2-dimethylamino-ethyl)-pyrimidine-5-sulfonyl]-piperidine-4-ylamino}-thiazol-5-yl)-(2,6-difluoro-phenyl)-methanone Hydrochloride Salt.] |  | 
 |  |  |  | 30% | -4% |  |  | Nc1nc(NC2CCN(C(=O)NC3C[C@H]3c3ccccc3)CC2)sc1C(=O)c1c(F)cccc1F (stereo partly shown) [Example O1] | 0% | 
 |  |  |  |  |  | 34% | 6% | C[Si](C)(C)NC(=O)N1CCC(Nc2nc(N)c(C(=O)c3c(F)cccc3F)s2)CC1 [Example O2] |  | 0%
 |  |  |  |  |  | 34% | 6% | Nc1nc(NC2CCN(C(=O)Nc3ccccc3)CC2)sc1C(=O)c1c(F)cccc1F [Example O3] |  | 0%
